Common to all, as to assay type: in vivo
In one test the test system is Alternaria solani. Description: Preventive glasshouse test against Alternaria solani in tomato (Example G). The following applies: single compound. As to the method: (§1) The single compounds or respective compound combinations were dissolved in 2% dimethyl sulfoxide/acetone and then mixed with water containing emulsifier to a calibrated spray volume of 50 mL. The test solutions were poured into spray bottles for further applications.
To test the preventive activity, healthy young tomato plants, raised in the greenhouse, were sprayed with the active compound preparation at the stated application rates inside the spray cabinets using hollow cone nozzles. One day after treatment, the plants were inoculated with a spore suspension containing 0.24×10^6 Alternaria solani inoculum and 2% Malt. The inoculated plants were then kept in a greenhouse chamber at a temperature of 22-24° C. and 90-95% relative humidity for disease expression.
A visual assessment of the performance of the single compounds or compound combinations was carried out by rating the disease severity (0-100% scale) on treated plants 3, 7, 10 and 15 days after application. Efficacy (% control) of the single compounds and mixtures was calculated by comparing the disease rating in the treatment with the one of the untreated control. The compounds were also assessed for their plant compatibility by recording symptoms like necrosis, chlorosis and stunting. The results have been described for the compound of formula (I-III) in Table G.

The test system of the next test is Erysiphe cichoracearum. Description: Preventive glasshouse test against Erysiphe cichoracearum in cucumber (Example K). Conditions: single compound. How it is done: The single compounds or the respective compound combinations were dissolved in 2% dimethyl sulfoxide/acetone and then mixed with water containing emulsifier to a calibrated spray volume of 50 mL. The test solutions were poured into spray bottles for further applications.
To test the preventive activity of compounds, healthy young cucumber plants, raised in the greenhouse, were sprayed with the active compound preparation at the stated application rates inside the spray cabinets using hollow cone nozzles. One day after treatment, the plants were inoculated with a conidial suspension containing 2×10^5 Erysiphe cichoracearum inoculum. The inoculated plants were then kept in a greenhouse chamber at a temperature of 22-24° C. and 50-60% relative humidity for disease expression.
A visual assessment of the performance of the compounds and the respective compound combinations was carried out by rating the disease severity (0-100% scale) on treated plants 3, 7, 10 and 15 days after application. Efficacy (% control) of the single compounds or compound combinations was calculated by comparing the disease rating in the treatment with the one of the untreated control. The compounds were also assessed for their plant compatibility by recording symptoms like necrosis, chlorosis and stunting. The results have been described for the compound of formula (I-III) in Table K.

Another test relates to Pyricularia oryzae. The following applies: single compound, 0.05 ppm, preventive, rice.
The next test concerns Spodoptera litura. Description: Diet incorporation method against Spodoptera litura (Example B). Conditions: single compound, 96 h. How it is done: The diet incorporation method was used, in which semi-synthetic diet was incorporated into the test solution consisting either of the single compound or respective compound combinations, when the temperature was approximately 50° C. in the bioassay containers, then stirred thoroughly for proper mixing and allowed to cool for 30 min. The solidified diet was cut into equal pieces, and then each piece was transferred into one cell of the bio-assay trays. A single starved third instar larva was released into each of these cells of the bio-assay trays and the tray was covered with a lid. The bio-assay trays were kept under laboratory conditions at a temperature of 25° C. and relative humidity of 70%. Observations on dead, moribund and live larvae were recorded 96 h after the release. Percent mortality was calculated by combining dead and moribund larvae and comparing the result with the one of the untreated control. The results are shown for the compound of formula (I-III) in Table B.

The subject of the next test is Helicoverpa armigera. As to the kind of experiment: Diet incorporation method against Helicoverpa armigera (Example A). Conditions: single compound, 96 h. As to the method:
The diet incorporation method was used, in which semi-synthetic diet was incorporated into the test solutions consisting either of the single compounds or respective compound combinations, when the temperature was approximately 50° C. in the bio-assay containers, then stirred thoroughly for proper mixing and allowed to cool for 30 min. The solidified diet was cut into equal pieces, and then each piece was transferred into one cell of a bio-assay tray. A single starved third instar larva was released into each of these cells of the bio-assay trays and the tray was covered with a lid. The bio-assay trays were kept under laboratory conditions at a temperature of 25° C. and relative humidity of 70%. Observations on dead, moribund and live larvae were recorded 96 h after the release of the larvae. Percent mortality was calculated by combining dead and moribund larvae and comparing the result to the one of the untreated control. The results are shown for the compound of formula (I-III) in Table A.

Another test deals with Phakopsora pachyrhizi. Description: Preventive glasshouse test against Phakopsora pachyrhizi in soybean (Example H). Conditions: single compound. As to the method:
The single compounds or the respective compound combinations were dissolved in 2% dimethyl sulfoxide/acetone and then mixed with water containing an emulsifier to a calibrated spray volume of 50 ml. The test solutions were poured into spray bottles for further applications.
To test the preventive activity of compounds, healthy young Soybean plants, raised in the greenhouse, were sprayed with the active compound preparation at the stated application rates inside the spray cabinets using hollow cone nozzles. One day after treatment, the plants were inoculated with a suspension containing 2×10^5 Phakopsora pachyrhizi conidia. The inoculated plants were then kept in a greenhouse chamber at a temperature of 22-24° C. and 80-90% relative humidity for disease expression.
A visual assessment of the performance of the single compounds and respective compound combinations was carried out by rating the disease severity (0-100% scale) on treated plants 3, 7, 10 and 15 days after application. Efficacy (% control) of the compounds was calculated by comparing the disease rating in the treatment with the one of the untreated control. The compounds were also assessed for their plant compatibility by recording symptoms like necrosis, chlorosis and stunting. The results have been described for the compound of formula (I-III) in Table H.

A further test deals with Septoria nodorum. As to the kind of experiment: Preventive glasshouse test against Parastagonospora nodorum/Septoria nodorum/Stagnospora nodorum in wheat (Example J). Conditions: single compound. How it is done: as §1
To test the preventive activity of compounds, healthy young wheat plants, raised in the greenhouse, were sprayed with the active compound preparation at the stated application rates inside the spray cabinets using hollow cone nozzles. One day after treatment, the plants were inoculated with a spore suspension containing 2.8×10^6 Stagnospora nodorum inoculum.
The inoculated plants were then kept in a greenhouse chamber at 22-25° C. temperature and 90-100% relative humidity for disease expression.
A visual assessment of the performance of the single compounds or compound combinations was carried out by rating the disease severity (0-100% scale) on treated plants 3, 7, 10 and 15 days after application. Efficacy (% control) of the single compounds and mixtures was calculated by comparing the disease rating in the treatment with the one of the untreated control. The compounds were also assessed for their plant compatibility by recording symptoms like necrosis, chlorosis and stunting. The results have been described for the compound of formula (I-III) in Table J.

[1] abbreviates: Spodoptera litura, 100 ppm, read-out: Observed Efficacy (%).
[2] abbreviates: Spodoptera litura, 200 ppm, read-out: Observed Efficacy (%).
Where [3] appears, read: Helicoverpa armigera, 100 ppm, read-out: Observed Efficacy (%).

“And” between values parts separate entries of the source, which are not always exact repeats. Equal entries are not always repeated.

`CO/C=C(/C(=O)OC)c1ccccc1Oc1cc(Oc2ccccc2C#N)ncn1` [Azoxystrobin]: the “Observed Efficacy (%)” value turned out to be 26% with Alternaria solani (0.05 ppm); 40% in the test with Alternaria solani (0.1 ppm); 26% in the test on Erysiphe cichoracearum (Conc. 0.05 ppm); 43% with Erysiphe cichoracearum (Conc. 0.1 ppm); 30% with Pyricularia oryzae; 0% with Spodoptera litura (100 ppm). Moreover, the “Observed Efficacy (%)” value in the test with Spodoptera litura (500 ppm), in the test on Helicoverpa armigera (100 ppm) and in the test with Helicoverpa armigera (500 ppm) was 0% throughout.

Consider `N#Cc1c[nH]cc1-c1cccc2c1OC(F)(F)O2` [Fludioxonil], for which the “Observed Efficacy (%)” value with Phakopsora pachyrhizi (2.0 ppm) amounted to 19%; in the test with Phakopsora pachyrhizi (10.0 ppm) it was 28%. The pest or weed control at 100 ppm in the test with Spodoptera litura (setting [1]) was found to be 37.5%. Moreover, in the test with Spodoptera litura (setting [2]), the pest or weed control at 200 ppm was found to be 25%.

Regarding `O=C(NCCc1ncc(C(F)(F)F)cc1Cl)c1ccccc1C(F)(F)F` [Fluopyram], the entries for the “Observed Efficacy (%)” value in the test with Alternaria solani (10 ppm) and in the test on Septoria nodorum (10 ppm) were 67% and 25%, respectively. For the same compound, in the test with Spodoptera litura (setting [1]), the pest or weed control at 100 ppm turned out to be 0%. Moreover, in the test with Helicoverpa armigera (Helicoverpa armigera, 50 ppm, read-out: Observed Efficacy (%)), the pest or weed control at 50 ppm stood at 0%.

`Cn1cc(C(=O)Nc2ccccc2-c2cc(F)c(F)c(F)c2)c(C(F)F)n1` [Fluxapyroxad]: the “Observed Efficacy (%)” value is on record as 14% in the test on Alternaria solani (0.05 ppm); 26% in the test on Alternaria solani (0.1 ppm); 29% in the test with Erysiphe cichoracearum (Conc. 0.05 ppm); 0% with Spodoptera litura (100 ppm); 0% in the test with Spodoptera litura (200 ppm); 0% with Spodoptera litura (500 ppm). Besides, the “Observed Efficacy (%)” value in the test with Septoria nodorum (0.05 ppm) is reported as 12%; in the test on Septoria nodorum (0.1 ppm), 29%.

With `N#Cc1ccccc1NC(=O)c1snc(Cl)c1Cl` [Isotianil], the “Observed Efficacy (%)” value with Phakopsora pachyrhizi (10.0 ppm) worked out at 31%; with Phakopsora pachyrhizi (50.0 ppm), 41%; in the test on Erysiphe cichoracearum (Conc. 10 ppm), 51%; in the test on Erysiphe cichoracearum (Conc. 50 ppm), 57%; in the test with Spodoptera litura (100 ppm) it was 0%; in the test on Spodoptera litura (200 ppm), 0%. Further, the “Observed Efficacy (%)” value in the test on Helicoverpa armigera (100 ppm) worked out at 0%; with Helicoverpa armigera (200 ppm), 25%.

`C=CCOC1=NS(=O)(=O)c2ccccc21` [Probenazole]: the “Observed Efficacy (%)” value was 22% in the test with Phakopsora pachyrhizi (2.0 ppm); 28% with Phakopsora pachyrhizi (10.0 ppm); 15% and 16% in the test with Erysiphe cichoracearum (Conc. 2 ppm); 22% in the test with Erysiphe cichoracearum (Conc. 10 ppm). The results for the pest or weed control at 100 ppm with Spodoptera litura (setting [1]) and with Helicoverpa armigera (setting [3]) were 12.5% and 0%, respectively. Also, the pest or weed control at 200 ppm in the test with Spodoptera litura (setting [2]) worked out at 0%.

In the case of `COC(=O)N(OC)c1ccccc1COc1ccn(-c2ccc(Cl)cc2)n1` [Pyraclostrobin], the “Observed Efficacy (%)” value was determined as 39% in the test with Phakopsora pachyrhizi (0.05 ppm), 26% in the test with Alternaria solani (0.05 ppm), 26% in the test on Alternaria solani (0.1 ppm) and 29% with Erysiphe cichoracearum (Conc. 0.05 ppm). For the same compound, the pest or weed control at 100 ppm in the test with Spodoptera litura (setting [1]) was 12.5%; in the test on Helicoverpa armigera (setting [3]), 0%. Also, the pest or weed control at 200 ppm with Spodoptera litura (setting [2]) was determined as 12.5%. The pest or weed control at 500 ppm in the test with Spodoptera litura (Spodoptera litura, 500 ppm, read-out: Observed Efficacy (%)) was found to be 12.5%.

For the origin of these results see patent US20230276804A1, “A PESTICIDALLY ACTIVE MIXTURE COMPRISING PYRAZOLOPYRIDINE ANTHRANILAMIDE COMPOUND, OXIDES OR SALTS THEREOF” (priority 2020, published 2023).
